pIC50: −log10 of the molar value.
What was measured:
[1] = Half life in dog plasma; assay type: ADME, organism-based, Canis lupus familiaris
[2] = Plasma clearance in dogs; assay type: ADME, organism-based, Canis lupus familiaris; conditions: dog
[3] = Compound was tested for the inhibition of VEGF-stimulated mitogenesis as determined in human umbilical vein endothelial cells; assay type: functional, cell-based; conditions: endothelial cell
[4] = molecular target: Vascular endothelial growth factor receptor 2 (Homo sapiens, UniProt P35968); experiment: Inhibition of VEGF receptor 2 mediated phosphorylation of poly-Glu/Tyr (4:1)
Sequence of Vascular endothelial growth factor receptor 2 (P35968 whole entry): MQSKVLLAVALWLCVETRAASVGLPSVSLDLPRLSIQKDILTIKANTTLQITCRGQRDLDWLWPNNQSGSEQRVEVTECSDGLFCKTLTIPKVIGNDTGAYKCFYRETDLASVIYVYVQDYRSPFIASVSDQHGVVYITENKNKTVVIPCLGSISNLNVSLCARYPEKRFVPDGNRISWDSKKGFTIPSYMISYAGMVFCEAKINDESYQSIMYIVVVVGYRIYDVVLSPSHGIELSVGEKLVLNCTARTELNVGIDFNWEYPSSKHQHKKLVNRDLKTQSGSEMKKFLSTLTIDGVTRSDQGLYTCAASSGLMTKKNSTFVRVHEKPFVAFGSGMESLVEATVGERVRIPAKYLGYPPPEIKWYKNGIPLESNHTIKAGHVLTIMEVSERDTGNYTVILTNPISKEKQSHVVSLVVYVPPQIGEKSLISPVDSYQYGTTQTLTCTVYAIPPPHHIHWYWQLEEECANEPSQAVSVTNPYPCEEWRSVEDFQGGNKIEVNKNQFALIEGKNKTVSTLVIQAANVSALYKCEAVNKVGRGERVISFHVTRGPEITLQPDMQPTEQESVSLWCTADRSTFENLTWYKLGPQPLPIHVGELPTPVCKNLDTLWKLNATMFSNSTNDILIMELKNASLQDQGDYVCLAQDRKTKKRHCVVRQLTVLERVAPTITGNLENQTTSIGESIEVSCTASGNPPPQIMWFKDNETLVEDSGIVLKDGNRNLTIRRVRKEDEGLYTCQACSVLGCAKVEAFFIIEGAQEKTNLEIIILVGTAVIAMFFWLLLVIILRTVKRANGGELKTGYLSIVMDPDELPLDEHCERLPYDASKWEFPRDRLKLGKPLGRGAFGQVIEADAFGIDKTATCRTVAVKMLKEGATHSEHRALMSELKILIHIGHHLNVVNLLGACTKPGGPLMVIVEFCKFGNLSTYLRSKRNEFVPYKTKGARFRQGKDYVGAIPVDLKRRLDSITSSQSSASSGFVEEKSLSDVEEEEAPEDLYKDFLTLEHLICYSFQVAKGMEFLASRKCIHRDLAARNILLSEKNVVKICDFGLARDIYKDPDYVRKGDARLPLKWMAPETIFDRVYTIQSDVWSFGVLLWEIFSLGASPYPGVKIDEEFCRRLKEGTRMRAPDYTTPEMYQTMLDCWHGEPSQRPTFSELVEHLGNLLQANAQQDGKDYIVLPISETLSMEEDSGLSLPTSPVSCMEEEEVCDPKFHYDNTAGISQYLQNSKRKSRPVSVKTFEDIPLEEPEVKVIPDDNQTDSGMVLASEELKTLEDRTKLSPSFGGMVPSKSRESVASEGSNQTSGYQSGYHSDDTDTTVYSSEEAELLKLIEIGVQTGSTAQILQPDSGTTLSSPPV

[5] = molecular target: T1, Voltage-gated inwardly rectifying potassium channel KCNH2 (Homo sapiens, UniProt Q12809); experiment: Affinity for HERG voltage-gated potassium channel subunit Kv11.1
T1 sequence (Q12809 whole entry): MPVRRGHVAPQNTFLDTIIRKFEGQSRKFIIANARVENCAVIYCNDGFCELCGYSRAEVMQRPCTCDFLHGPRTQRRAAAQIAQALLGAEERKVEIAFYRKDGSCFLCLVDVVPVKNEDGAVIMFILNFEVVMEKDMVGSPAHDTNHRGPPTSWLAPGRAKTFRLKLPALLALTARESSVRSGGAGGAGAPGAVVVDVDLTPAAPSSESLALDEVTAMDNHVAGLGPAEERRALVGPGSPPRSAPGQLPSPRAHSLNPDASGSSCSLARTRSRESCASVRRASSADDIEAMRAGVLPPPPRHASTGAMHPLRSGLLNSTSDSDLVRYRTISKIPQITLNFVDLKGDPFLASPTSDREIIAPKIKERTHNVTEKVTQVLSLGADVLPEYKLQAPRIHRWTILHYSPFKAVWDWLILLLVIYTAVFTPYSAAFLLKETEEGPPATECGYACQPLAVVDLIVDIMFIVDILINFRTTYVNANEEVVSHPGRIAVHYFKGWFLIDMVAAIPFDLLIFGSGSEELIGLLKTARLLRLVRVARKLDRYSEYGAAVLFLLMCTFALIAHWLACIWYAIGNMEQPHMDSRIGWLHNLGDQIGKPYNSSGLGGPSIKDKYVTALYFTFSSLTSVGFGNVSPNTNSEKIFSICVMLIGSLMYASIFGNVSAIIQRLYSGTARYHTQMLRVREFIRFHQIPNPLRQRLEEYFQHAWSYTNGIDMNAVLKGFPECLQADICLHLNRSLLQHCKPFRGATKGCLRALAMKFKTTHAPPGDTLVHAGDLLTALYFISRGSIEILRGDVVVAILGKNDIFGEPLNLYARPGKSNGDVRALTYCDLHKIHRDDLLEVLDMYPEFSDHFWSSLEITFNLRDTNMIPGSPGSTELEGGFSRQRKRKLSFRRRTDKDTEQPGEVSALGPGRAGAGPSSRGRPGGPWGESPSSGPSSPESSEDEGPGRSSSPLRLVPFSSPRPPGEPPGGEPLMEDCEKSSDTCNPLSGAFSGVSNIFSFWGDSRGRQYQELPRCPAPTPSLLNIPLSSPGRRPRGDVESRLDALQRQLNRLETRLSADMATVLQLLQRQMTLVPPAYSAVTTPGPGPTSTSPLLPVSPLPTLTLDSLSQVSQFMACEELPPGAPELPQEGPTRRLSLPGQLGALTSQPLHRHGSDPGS

[6] = Half life in monkey plasma after administration of 1 mg/kg iv; assay type: ADME, organism-based; set-up: dose 1 mg/kg, route intravenous; conditions: cercopithecidae
[7] = Oral bioavailability in monkey (dose 1 mg/kg p.o.); assay type: ADME, organism-based; conditions: cercopithecidae, in vivo
[8] = Cmax in monkey after administration of 1 mg/kg iv; assay type: ADME, organism-based; set-up: dose 1 mg/kg, route intravenous; conditions: cercopithecidae, in vivo
[9] = Volume distribution in monkey after administration of 1 mg/kg iv; assay type: ADME, organism-based; set-up: dose 1 mg/kg, route intravenous; conditions: cercopithecidae, in vivo, read-out: Vss
[10] = Half life in dog plasma after administration of 1 mg/kg iv; assay type: ADME, organism-based, Canis lupus familiaris; set-up: dose 1 mg/kg, route intravenous
[11] = Plasma clearance in monkey after administration of 1 mg/kg iv; assay type: ADME, organism-based; set-up: dose 1 mg/kg, route intravenous; conditions: cercopithecidae
[12] = Volume distribution in rat after administration of 2 mg/kg iv; assay type: ADME, organism-based; set-up: dose 2 mg/kg, route intravenous; conditions: in vivo, read-out: Vss
[13] = Oral bioavailability in rat (dose 10 mg/kg p.o.); assay type: ADME, organism-based; conditions: in vivo
[14] = Oral bioavailability in dog (dose 1 mg/kg p.o.); assay type: ADME, organism-based, Canis lupus familiaris; conditions: in vivo
[15] = Plasma clearance in rat after administration of 2 mg/kg iv; assay type: ADME, organism-based; set-up: dose 2 mg/kg, route intravenous
[16] = Cmax in dog after administration of 1 mg/kg iv; assay type: ADME, organism-based, Canis lupus familiaris; set-up: dose 1 mg/kg, route intravenous; conditions: in vivo
[17] = Volume distribution in dog after administration of 1 mg/kg iv; assay type: ADME, organism-based, Canis lupus familiaris; set-up: dose 1 mg/kg, route intravenous; conditions: in vivo, read-out: Vss
[18] = Cmax in rat after administration of 2 mg/kg iv; assay type: ADME, organism-based; set-up: dose 2 mg/kg, route intravenous; conditions: in vivo
[19] = Half life in rat plasma after administration of 2 mg/kg iv; assay type: ADME, organism-based; set-up: dose 2 mg/kg, route intravenous
[20] = Partition coefficient (logP); assay type: physicochemical; conditions: octanol/water
[21] = Plasma clearance in dog after administration of 1 mg/kg iv; assay type: ADME, organism-based, Canis lupus familiaris; set-up: dose 1 mg/kg, route intravenous
[22] = Half life in dog plasma after administration of 0.25 mg/kg iv; assay type: ADME, organism-based, Canis lupus familiaris; set-up: dose 0.25 mg/kg, route intravenous
[23] = Oral bioavailability in rat after administration of 10 mg/kg po; assay type: ADME, organism-based; conditions: in vivo
[24] = Plasma clearance in dog after administration of 0.25 mg/kg iv; assay type: ADME, organism-based, Canis lupus familiaris; set-up: dose 0.25 mg/kg, route intravenous
[25] = molecular target: T1, Voltage-gated inwardly rectifying potassium channel KCNH2; experiment: Effect on prolongation of the heart rate-corrected QT interval; assay type: functional

| half-life [1] [min] | clearance [2] [mL/min/kg] | pIC50 [3] | pIC50 [4] | logP [20] | SMILES | IP [5] [nM] | other results |
| --- | --- | --- | --- | --- | --- | --- | --- |
| 66 | 26 | 8.40 | 8.30 | – | NC1CCN(C(=O)c2ccc3[nH]c(-c4cc5ccccc5nc4O)cc3c2)C1 (stereo not given) | > 10000 | – |
| 384 | 0.5 | 7.51 | 8.00 | 3 | CN1CCN(S(=O)(=O)c2ccc3[nH]c(-c4cc5ccccc5nc4O)cc3c2)CC1 | 3440 | half-life [6]: 204 min; bioavailability [7]: 40%; Cmax [8]: 630 nM; Vd [9]: 2.1 L/kg; half-life [10]: 384 min; clearance [11]: 12 mL/min/kg; Vd [12]: 0.9 L/kg; bioavailability [13]: 54%; bioavailability [14]: 63%; clearance [15]: 29 mL/min/kg; Cmax [16]: 5200 nM; Vd [17]: 0.3 L/kg; Cmax [18]: 4.8 µM; half-life [19]: 66 min; clearance [21]: 0.5 mL/min/kg |
| 132 | 7.8 | 8.40 | 8.40 | 3.2 | CC(=O)N1CCN(CCOc2ccc3[nH]c(-c4cc5ccccc5nc4O)cc3c2)CC1 | 520 | – |
| 252 | 27 | 8.40 | 8.30 | 1.7 | O=C(c1ccc2[nH]c(-c3cc4ccccc4nc3O)cc2c1)N1CCNCC1 | > 10000 | – |
| 144 | 19 | 8.40 | 8.30 | 2.6 | CN1CCN(C(=O)c2ccc3[nH]c(-c4cc5ccccc5nc4O)cc3c2)CC1 | 10800 | half-life [6]: 168 min; bioavailability [7]: 46%; Cmax [8]: 1250 nM; Vd [9]: 0.9 L/kg; half-life [10]: 144 min; clearance [11]: 3.4 mL/min/kg; Vd [12]: 0.7 L/kg; bioavailability [13]: 31%; bioavailability [14]: 15%; clearance [15]: 3.8 mL/min/kg; Cmax [16]: 160 nM; Vd [17]: 2.9 L/kg; Cmax [18]: 5.79 µM; half-life [19]: 138 min; clearance [21]: 19 mL/min/kg |
| 102 | 38 | 7.28 | 8.22 | – | O=C(NC1CCNC1)c1ccc2[nH]c(-c3cc4ccccc4nc3O)cc2c1 (stereo not given) | 13700 | – |
| 78 | > 50 | 7.77 | 8.40 | 3.7 | Oc1nc2ccccc2cc1-c1cc2cc(OCCN3CCCCC3)ccc2[nH]1 | 980 | EC10 [25]: 640 nM |

Second part, the compound before the results:

| SMILES | half-life [1] [min] | clearance [2] [mL/min/kg] | pIC50 [3] | pIC50 [4] | logP [20] | IP [5] [nM] | other results |
| --- | --- | --- | --- | --- | --- | --- | --- |
| O=c1[nH]c2ccccc2cc1-c1nc2ccccc2[nH]1 | – | – | 5.94 | – | – | – | – |
| COCCN(C)CCOc1ccc2[nH]c(-c3cc4ccccc4nc3O)cc2c1 | < 60 | > 50 | 8.10 | 8.15 | 3.1 | 1950 | half-life [22]: < 60 min; Vd [12]: 5 L/kg; bioavailability [23]: 20%; clearance [15]: 56 mL/min/kg; clearance [24]: > 50 mL/min/kg; Cmax [18]: 0.47 µM; half-life [19]: 84 min; EC10 [25]: 1900 nM |
| O=C(O)C1CCN(CCCOc2ccc3[nH]c(-c4cc5ccccc5nc4O)cc3c2)CC1 | 192 | 7.7 | 7.39 | 8.10 | 0.9 | 3050 | EC10 [25]: 5200 nM |
| O=c1[nH]c2ccccc2cc1-c1cc2cc(S(=O)(=O)N3CCNCC3)ccc2[nH]1 | 762 | 3.5 | 7.52 | 7.96 | 2.3 | 2450 | – |
| O=c1[nH]c2ccccc2cc1-c1cc2ccccc2[nH]1 | – | – | 6.74 | – | – | – | – |
| NC1CCN(S(=O)(=O)c2ccc3[nH]c(-c4cc5ccccc5nc4O)cc3c2)C1 (stereo not given) | 204 | 11 | 7.57 | 7.80 | – | 2650 | – |
| O=c1[nH]c2ccccc2cc1-c1cc2cc(S(=O)(=O)NC3CCNC3)ccc2[nH]1 (stereo not given) | 570 | 0.4 | 7.01 | 7.85 | – | 2835 | – |
